Measured values taken from patent US6748954B2, “Drug release from polymer matrices through mechanical stimulation” (The Regents of The University of Michigan, priority 2000, dated 2004).

Assay: in vitro release of trypan blue from alginate hydrogel disks with or without compression
Assay type: physicochemical
Procedure: In a first in vitro experiment, alginate hydrogels were prepared comprising 10 g PROTANAL, 4 mg trypan blue (Sigma Chemical) as a model drug molecule, and 63 mg CaSO4 (Sigma Chemical). The hydrogels were cut into disks of approximately 12.7 mm diameter and approximately 2 mm thick, and thereafter swollen overnight in the commercially available Dulbecco's Modified Eagle's Medium (DMEM). The hydrogel disks so prepared were next placed in custom-made sample holders of 13 mm diameter and 30 mm length. Porous stainless steel supports were provided on both the top and bottom of each hydrogel disk to permit release of the trypan blue drug during compression of the hydrogels.
The results of this first, in vitro experiment are shown in FIG. 1, which figure comprises an upper chart graphically depicting the mechanical stimulation cycle of compression/relaxation relative to a lower chart graphically depicting the release of the trypan blue drug from the mechanically stimulated hydrogels (line A). The control, non-compressed hydrogels are also depicted in this lower chart (line B).

effect of compression on trypan blue release (compressed (A) versus non-compressed (B) hydrogels): did not significantly alter
release of the trypan blue drug from the compressed hydrogels (compressed hydrogels (line A), three compression/relaxation cycles, 10% maximum compressive strain, DMEM-swollen): increased steadily
Structure (SMILES): Cc1cc(-c2ccc(/N=N/c3c(S(=O)(=O)O)cc4cc(S(=O)(=O)O)cc(N)c4c3O)c(C)c2)ccc1/N=N/c1c(S(=O)(=O)O)cc2cc(S(=O)(=O)O)cc(N)c2c1O [trypan blue]
